# Target: T1, SHP2 protein (Homo sapiens, UniProt Q06124)
# T1 sequence (Q06124 1-593): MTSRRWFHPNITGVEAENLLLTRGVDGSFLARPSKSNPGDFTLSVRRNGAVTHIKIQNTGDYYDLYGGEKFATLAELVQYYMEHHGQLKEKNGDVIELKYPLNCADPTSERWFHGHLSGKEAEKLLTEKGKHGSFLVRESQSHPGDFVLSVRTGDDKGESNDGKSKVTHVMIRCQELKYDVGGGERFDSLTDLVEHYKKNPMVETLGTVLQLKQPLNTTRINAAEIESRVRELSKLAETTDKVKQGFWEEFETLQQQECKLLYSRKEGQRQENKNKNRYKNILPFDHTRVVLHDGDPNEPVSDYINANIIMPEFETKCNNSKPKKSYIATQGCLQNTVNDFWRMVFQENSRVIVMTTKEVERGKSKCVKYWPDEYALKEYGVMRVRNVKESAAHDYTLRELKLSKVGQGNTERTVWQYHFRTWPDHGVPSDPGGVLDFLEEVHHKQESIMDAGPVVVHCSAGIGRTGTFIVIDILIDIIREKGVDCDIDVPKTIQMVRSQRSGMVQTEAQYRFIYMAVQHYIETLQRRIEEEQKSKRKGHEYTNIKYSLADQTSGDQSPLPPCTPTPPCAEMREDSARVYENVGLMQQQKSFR
# Assay: Measurement of SHP2 protein degradation in MV-4-11 cells (western blotting)
# Assay type: cell-based
# Parameters: endogenous in cells
# Details: harvested after 24 hours
# Protocol: MV-4-11 cells were treated with the synthesized Example compounds, and the amount of SHP2 protein present in the cells was measured using western blotting detection. The protocol for the experiment conducted using MV-4-11 cells is as follows.
# [Culture] MV-4-11 cells were resuspended in IMDM MEDIUM (Hyclone, SH30228.01), 5% FBS (Hyclone, SV30207.02), 1% Penicillin-streptomycin (Welgene, LS 202-02) media and seeded at 1×10^6/mL in 12-well plates (1 mL each).
# [Compound treatment]12-well plates were treated as follows. 10 mM stock dissolved in DMSO was serially diluted 1/100 or 1/10 with media, and the compounds were treated to the cells at a final concentration of 0.01, 0.1, 1 μM or 0.001, 0.01, 0.1 μM, and harvested after 24 hours. For the negative control group, DMSO diluted 1/100 or 1/1000 in media was added (3 μL DMSO+297 μL media or 1 μL DMSO+999 μL media).
# [Harvest] Each well was pipetted with a 1 mL pipette, collected in a 1.5 mL microtube, and centrifuged (500 g, 5 min, 4° C.). The supernatant was removed, washed with PBS, and centrifuged again (500 g, 5 min, 4° C.). The supernatant was removed and a pellet was prepared.
# [Cell lysis and sample preparation] Lysis buffer was prepared as follows. RIPA buffer (Biosesang, RC2038-050-00)+0.5 mM PMSF (SIGMA, P7626)+1× Protease/Phosphatase Inhibitor (Cell signaling, 5872S) were added at 50 μL per tube and incubated on ice for 30 minutes (vortexed at 0 and 30 minutes). After sonication (10 sec pulse, 30 sec rest, 5 cycles, 70% amplification) and centrifugation (15,000 g, 15 min, 4° C.), only the supernatant was transferred to a microtube. RIPA buffer 7.5 μL and sample 2.5 μL were added to a 96-well plate to dilute to 1/4, and then BCA Protein Assay Kit (iNtRON, 21071) A and B were mixed in a 50:1 ratio and 200 μL each was added. After that, the plate was incubated at 37° C. for 30 minutes and left at room temperature for 10 minutes. After shaking for 10 seconds with a SYNERGY H1 microplate reader from BioTek, the absorbance was measured at 562 nm. The protein was quantified using the measured value to prepare a sample, which was then incubated at 70° C. for 10 minutes. The sample buffer used at this time is a mixture of NuPAGE or Bolt 4× sample buffer (Invitrogen) and each 10× sample reducing agent according to the gel to be used, and RIPA buffer was used for protein dilution.
# [Western blotting detection] Equal amounts of samples were loaded onto NuPAGE or Bolt Bis-tris 4-12% gradient gels and run (200 V, 35 min). This was transferred to […] NC membranes using Trans-blot Turbo (BIO-RAD) (1.3 A constant, 25 V limit, 15 min), and was blocked at room temperature for 1 hour with Skim milk or Intercept Blocking Buffer (LI-COR, 927-60001):0.1% TBST=1:1. Anti-SHPTP2 Mouse (1:500 in 2% BSA/0.2% TBST, size: 70 kDa, Santacruz sc-7384) was incubated overnight at 4° C., and Anti-GAPDH Rabbit (1:2,000 in 2% BSA/0.2% TBST, size: 37 kDa, CST #2118) was incubated at room temperature for 1.5 hours or 3 hours. After washing three times for 5 minutes each with 0.2% TBST washing buffer, secondary antibodies Anti-Mouse IgG (1:5,000 in 2% BSA/0.2% TBST, CST) and IRDye® 680RD Goat anti-Rabbit IgG Secondary Antibody (1:10,000 in 2% BSA/0.2% TBST, LI-COR 926-68071) were added, and incubated on a rocker at room temperature for 45 minutes. The resultants were washed five times for 5 minutes each with 0.2% TBST washing buffer, and detected using LI-COR's Odyssey. GAPDH was detected with a 700 nm channel, and SHPTP2 was detected using SuperSignal West Pico PLUS Chemiluminescent Substrate.
SMILES,SHP2% degradation (0.01 μM) [%],SHP2% degradation (0.1 μM) [%]
"Cc1ncsc1-c1ccc(CNC(=O)[C@@H]2C[C@@H](O)CN2C(=O)[C@@H](NC(=O)C2(F)CC2)C(C)(C)C)c(O[C@H]2CC[C@H](C(=O)N3CC(Nc4cccc(Oc5cnc(N6CCC(C)(CN)CC6)cn5)c4Cl)C3)CC2)c1 [Example 16, (2S,4R)—N-(2-(((1R,4S)-4-(3-((3-((5-(4-(aminomethyl)-4-methylpiperidin-1-yl)pyrazin-2-yl)oxy)-2-chlorophenyl)amino)azetidine-1-carbonyl)cyclohexyl)oxy)-4-(4-methylthiazol-5-yl)benzyl)-1-((S)-2-(1-fluorocyclopropane-1-carboxamido)-3,3-dimethylbutanoyl)-4-hydroxypyrrolidine-2-carboxamide]",−30.1,94.3
"Cc1ncsc1-c1ccc(CNC(=O)[C@@H]2C[C@@H](O)CN2C(=O)[C@@H](NC(=O)C2(F)CC2)C(C)(C)C)c(O[C@H]2CC[C@H](C(=O)N3CCC(Nc4nccc(Sc5cnc(N6CCC(C)(N)CC6)cn5)c4Cl)CC3)CC2)c1 [Example 24, (2S,4R)—N-(2-(((1R,4S)-4-(4-((4-((5-(4-amino-4-methylpiperidin-1-yl)pyrazin-2-yl)thio)-3-chloropyridin-2-yl)amino)piperidine-1-carbonyl)cyclohexyl)oxy)-4-(4-methylthiazol-5-yl)benzyl)-1-((S)-2-(1-fluorocyclopropane-1-carboxamido)-3,3-dimethylbutanoyl)-4-hydroxypyrrolidine-2-carboxamide]",83.1,100.0
"Cc1ncsc1-c1ccc(CNC(=O)[C@@H]2C[C@@H](O)CN2C(=O)[C@@H](NC(=O)C2(F)CC2)C(C)(C)C)c(OCCC2CCN(C(=O)C3CN(c4nccc(Sc5cnc(N6CCC(C)(CN)CC6)cn5)c4Cl)C3)CC2)c1 [Example 55, (2S,4R)—N-(2-(2-(1-(1-(4-((5-(4-(aminomethyl)-4-methylpiperidin-1-yl)pyrazin-2-yl)thio)-3-chloropyridin-2-yl)azetidine-3-carbonyl)piperidin-4-yl)ethoxy)-4-(4-methylthiazol-5-yl)benzyl)-1-((S)-2-(1-fluorocyclopropane-1-carboxamido)-3,3-dimethylbutanoyl)-4-hydroxypyrrolidine-2-carboxamide]",27.5,95.0
"Cc1ncsc1-c1ccc(CNC(=O)[C@@H]2C[C@@H](O)CN2C(=O)[C@@H](NC(=O)C2(F)CC2)C(C)(C)C)c(O[C@H]2CC[C@H](C(=O)N3CC(Nc4cccc(Sc5cnc(N6CCC7(CC6)Cc6ccccc6[C@H]7N)cn5)c4Cl)C3)CC2)c1 [Example 14, (2S,4R)—N-(2-(((1R,4S)-4-(3-((3-((5-((S)-1-amino-1,3-dihydrospiro[indene-2,4′-piperidin]-1′-yl)pyrazin-2-yl)thio)-2-chlorophenyl)amino)azetidine-1-carbonyl)cyclohexyl)oxy)-4-(4-methylthiazol-5-yl)benzyl)-1-((S)-2-(1-fluorocyclopropane-1-carboxamido)-3,3-dimethylbutanoyl)-4-hydroxypyrrolidine-2-carboxamide]",1.2,85.1

# Next, values leading:
SHP2% degradation (0.01 μM) [%],SHP2% degradation (0.1 μM) [%],SMILES
97.0,99.3,"CC(=O)N[C@H](C(=O)N1C[C@H](O)C[C@H]1C(=O)NCc1ccc(-c2scnc2C)cc1OC1CCN(C(=O)C2CCN(c3nccc(Sc4cnc(N5CCC(C)(CN)CC5)cn4)c3Cl)CC2)CC1)C(C)(C)C [Example 75, (2S,4R)-1-((S)-2-acetamido-3,3-dimethylbutanoyl)-N-(2-((1-(1-(4-((5-(4-(aminomethyl)-4-methylpiperidin-1-yl)pyrazin-2-yl)thio)-3-chloropyridin-2-yl)piperidine-4-carbonyl)piperidin-4-yl)oxy)-4-(4-methylthiazol-5-yl)benzyl)-4-hydroxypyrrolidine-2-carboxamide]"
82.0,97.7,"Cc1ncsc1-c1ccc(CNC(=O)[C@@H]2C[C@@H](O)CN2C(=O)[C@@H](NC(=O)C2(F)CC2)C(C)(C)C)c(OCC2CCN(C(=O)C3CCN(c4nccc(Sc5cnc(N6CCC(C)(CN)CC6)cn5)c4Cl)CC3)CC2)c1 [Example 58, (2S,4R)—N-(2-((1-(1-(4-((5-(4-(aminomethyl)-4-methylpiperidin-1-yl)pyrazin-2-yl)thio)-3-chloropyridin-2-yl)piperidine-4-carbonyl)piperidin-4-yl)methoxy)-4-(4-methylthiazol-5-yl)benzyl)-1-((S)-2-(1-fluorocyclopropane-1-carboxamido)-3,3-dimethylbutanoyl)-4-hydroxypyrrolidine-2-carboxamide]"
85.2,98.1,"Cc1ncsc1-c1ccc(CNC(=O)[C@@H]2C[C@@H](O)CN2C(=O)[C@@H](NC(=O)C2(F)CC2)C(C)(C)C)c(OC2CCN(C(=O)C3CCN(c4nccc(Sc5cnc(N6CCC(C)(CN)CC6)cn5)c4Cl)CC3)CC2)c1 [Example 65, (2S,4R)—N-(2-((1-(1-(4-((5-(4-(aminomethyl)-4-methylpiperidin-1-yl)pyrazin-2-yl)thio)-3-chloropyridin-2-yl)piperidine-4-carbonyl)piperidin-4-yl)oxy)-4-(4-methylthiazol-5-yl)benzyl)-1-((S)-2-(1-fluorocyclopropane-1-carboxamido)-3,3-dimethylbutanoyl)-4-hydroxypyrrolidine-2-carboxamide]"
95.8,100.0,"CC(=O)N[C@H](C(=O)N1C[C@H](O)C[C@H]1C(=O)N[C@@H](C)c1ccc(-c2scnc2C)cc1OC1CCN(C(=O)C2CCN(c3nccc(Sc4cnc(N5CCC(C)(CN)CC5)cn4)c3Cl)CC2)CC1)C(C)(C)C [Example 87, (2S,4R)-1-((S)-2-acetamido-3,3-dimethylbutanoyl)-N—((S)-1-(2-((1-(1-(4-((5-(4-(aminomethyl)-4-methylpiperidin-1-yl)pyrazin-2-yl)thio)-3-chloropyridin-2-yl)piperidine-4-carbonyl)piperidin-4-yl)oxy)-4-(4-methylthiazol-5-yl)phenyl)ethyl)-4-hydroxypyrrolidine-2-carboxamide]"

# Reference: patent publication US20260144788A1, “COMPOUND FOR SHP2 PROTEIN DEGRADATION AND MEDICAL USES THEREOF” (UBIX THERAPEUTICS, INC., priority 2022, published 2026)
